pIC50: −log10 of the molar value.
Legend:
SW48 = assay: CellTiter-Glo cell viability, tumor cell line SW48; type: cell-based; settings: SW48, 72 h; human colon adenocarcinoma cell; 3 days of culture; read-out: inhibitory effect on SW48 (IC50)
Procedure: (§1) Cell viability was detected using the Promega CellTiter-Glo kit, cell viability was determined by directly measuring intracellular ATP content. In the experiment, the IC50 value of the compounds prepared in the Examples of the present invention on various tumor cell lines was detected.
(§2) Each tumor cell was cultured in relevant medium. After cell passage, the gradient diluted compounds prepared in the Examples of the present invention was added. After 3 days of culture, the relevant IC50 (50% inhibiting concentration) was measured. The name, source and culture conditions of each tumor cell line were as follows:
Cell line SW48 (ATCC, No. CCL-231) was cultured in 10% fetal bovine serum-containing Leibovitz's L-15 medium (+P/S).

D341 Med = assay: CellTiter-Glo cell viability, brain tumor cell line D341 Med; type: cell-based; settings: Homo sapiens, 72 h, cerebellar medulloblastoma cell, 3 days of culture, read-out: inhibitory effect on D341 Med (IC50)
Procedure: (§3) Cell viability was detected using the Promega CellTiter-Glo kit, cell viability was determined by directly measuring intracellular ATP content. In the experiment, the IC50 value of the compounds prepared in the Examples of the present invention on various brain tumor cell lines was detected.
as §2
Cell line D341 Med (ATCC, No. HTB-187) was cultured in 20% fetal bovine serum-containing EMEM medium (+P/S).

CFPAC-1 = assay: CellTiter-Glo cell viability, tumor cell line CFPAC-1; type: cell-based; settings: CFPAC-1, 72 h; human pancreatic cancer cell; 3 days of culture; read-out: inhibitory effect on CFPAC-1 (IC50)
Procedure: as §1, §2
Cell line CFPAC-1 (ATCC, No. CRL-1918) was cultured in 10% fetal bovine serum-containing IMDM medium (+P/S).

786-O = assay: CellTiter-Glo cell viability, tumor cell line 786-O; type: cell-based; settings: Homo sapiens, 786-0, 72 h; clear cell renal cell adenocarcinoma cell; 3 days of culture; read-out: inhibitory effect on 786-O (IC50)
Procedure: as §1, §2
Cell line 786-0 (ATCC, No. CRL-1932) was cultured in 10% fetal bovine serum-containing RPMI164B medium (+P/S).

MDA-MB-453 = assay: CellTiter-Glo cell viability, tumor cell line MDA-MB-453; type: cell-based; settings: Homo sapiens, MDA-MB-453, 72 h; breast cancer cell; 3 days of culture; read-out: inhibitory effect on MDA-MB-453 (IC50)
Procedure: as §1
as §2, with “follows: […]” for “follows:”

sh-DNMT1 NCI-H82 cell = assay: CellTiter-Glo cell viability, sh-DNMT1 NCI-H82 cell (DNMT1 knocked down); type: cell-based, human; settings: Homo sapiens, NCI-H82, NCI-H82 with DNMT1 knocked down by shRNA, intracellular ATP, read-out: inhibitory effect on sh-DNMT1 NCI-H82 (IC50)
NCI-H82 = assay: CellTiter-Glo cell viability, tumor cell line NCI-H82; type: cell-based; settings: NCI-H82, 72 h; human small cell lung cancer cell; 3 days of culture; read-out: inhibitory effect on NCI-H82 (IC50)
Procedure: as §1, §2
Cell line NCI-H82 (ATCC, No. HTB-175) was cultured in 10% fetal bovine serum-containing RPMI1640 medium (+P/S).

Con-NCI-H82 cell = assay: CellTiter-Glo cell viability, Con-NCI-H82 cell (empty-vector control); type: cell-based, human; settings: Homo sapiens, NCI-H82, NCI-H82 transfected with empty virus vector (control), intracellular ATP, read-out: inhibitory effect on Con-NCI-H82 (IC50)
ov-NNMT NCI-H82 cell = assay: CellTiter-Glo cell viability, ov-NNMT NCI-H82 cell (NNMT overexpressed); type: cell-based, human; settings: Homo sapiens, NCI-H82, NCI-H82 overexpressing NNMT protein, intracellular ATP, read-out: inhibitory effect on OV-NNMT NCI-H82 (IC50)
G-401 = assay: CellTiter-Glo cell viability, tumor cell line G-401; type: cell-based; settings: G-401, 72 h; human renal carcinoma Wilms cell; 3 days of culture; read-out: inhibitory effect on G-401 (IC50)
Procedure: as §1, §2
Cell line G-401 (ATCC, No. CRL-1441) was cultured in 10% fetal bovine serum-containing McCoy's 5a medium (+P/S).

Kelly = assay: CellTiter-Glo cell viability, brain tumor cell line Kelly; type: cell-based; settings: Homo sapiens, 72 h, brain neuroblastoma cell, 3 days of culture, read-out: inhibitory effect on Kelly (IC50)
Procedure: as §3, §2
Cell line Kelly (ECACC, No. 92110411) was cultured in 10% fetal bovine serum and 2 mM glutamine-containing RPMI1640 medium.

SF-126 = assay: CellTiter-Glo cell viability, tumor cell line SF-126; type: cell-based; settings: SF-126, 72 h, read-out: inhibitory effect on SF-126 (IC50); human glioblastoma multiforme cell; 3 days of culture
Procedure: as §1, §2
Cell line SF126 (JCRB, No. IFO50286) was cultured in 10% fetal bovine serum-containing EMEM medium (+P/S).
as §3

NB-1 = assay: CellTiter-Glo cell viability, brain tumor cell line NB-1; type: cell-based; settings: Homo sapiens, NB1, 72 h; brain neuroblastoma cell; 3 days of culture; read-out: inhibitory effect on NB-1 (IC50)
Procedure: as §3
as §2, with “follows: […]” for “follows:”

GB-1 = assay: CellTiter-Glo cell viability, tumor cell line GB-1; type: cell-based; settings: GB-1, 72 h; human brain glioblastoma cell; 3 days of culture; read-out: inhibitory effect on GB-1 (IC50)
Procedure: as §1, §2
Cell line GB-1 (JCRB, No. IFO50489) was cultured in 10% fetal bovine serum-containing DMEM medium (+P/S).
as §3

SMILES | pIC50 (SW48) | pIC50 (D341 Med) | pIC50 (CFPAC-1) | pIC50 (786-O) | pIC50 (MDA-MB-453) | pIC50 (sh-DNMT1 NCI-H82 cell) | pIC50 (NCI-H82) | pIC50 (Con-NCI-H82 cell) | pIC50 (ov-NNMT NCI-H82 cell) | pIC50 (G-401) | pIC50 (Kelly) | pIC50 (SF-126) | pIC50 (NB-1) | pIC50 (GB-1)
COc1ccc2c(c1OCCCCOc1ccccc1)C(C(Cl)(Cl)Cl)N1CCc3cc4c(cc3C1=C2)OCO4 (stereo not shown) [AB35476] | 5.95 | 6.05 | 4.85 | 4.91 | 6.07 | 5.34 | 6.00 | 6.00 | 5.43 | 5.88 | 5.88 | 4.74 | 5.61 | 4.80
COc1ccc2c(c1OC)CN1CCc3cc4c(cc3C1=C2Cc1ccc(OC(F)(F)F)cc1)OCO4 [AB31866] | 5.71 | 5.81 | 4.91 | 4.81 | 5.63 | 5.46 | 6.09 | 6.09 | 5.73 | 5.97 | 5.88 | 4.70 | 5.66 | 4.98
[2H]C1c2c(ccc(OC)c2OCCC)C=C2c3cc4c(cc3CCN21)OCO4 (stereo not shown) [AB36437] | 5.59 | 5.67 | 4.84 | 4.70 | 5.87 | 5.51 | 6.19 | 6.19 | 5.56 | 6.01 | 5.72 | 4.78 | 5.59 | 4.70
CCCOc1c(OC)ccc2c1CN1CCc3cc4c(cc3C1=C2)OCO4 [AB35536] | 5.90 | 5.97 | 5.00 | 4.81 | 6.03 | 5.59 | 6.28 | 6.28 | 5.65 | 5.86 | 5.59 | 4.63 | 5.51 | 4.78
COc1ccc2c(c1OCCCCN)C(C)N1CCc3cc4c(cc3C1=C2)OCO4 (stereo not shown) [AB35429] | 5.84 | 5.69 | 4.87 | 4.90 | 5.61 | 5.30 | 5.72 | 5.72 | 5.27 | 5.69 | 5.50 | 4.81 | 5.46 | 4.74
[2H]C([2H])([2H])Oc1c(OC)ccc2c1C(C1CCCC1)N1CCc3cc4c(cc3C1=C2)OCO4 (stereo not shown) [AB36501] | 5.94 | 6.12 | 5.01 | 4.88 | 5.88 | 5.29 | 6.01 | 6.01 | 5.36 | 6.06 | 5.86 | 4.81 | 5.69 | 4.87
COc1ccc2c(c1OC)C(C1CCCC1)N1CCc3cc4c(cc3C1=C2CCCc1ccccc1)OCO4 (stereo not shown) [AB35436] | 5.81 | 5.81 | 4.94 | 4.81 | 6.00 | 5.27 | 5.90 | 5.90 | 5.48 | 5.72 | 5.51 | 4.66 | 5.53 | < 4.52
COc1ccc2c(c1N1CCC(C)CC1)C(C1CCCC1)N1CCc3cc4c(cc3C1=C2)OCO4 (stereo not shown) [AB35510] | 5.70 | 6.12 | 4.88 | 4.61 | 6.25 | 5.73 | 6.51 | 6.51 | 5.81 | 5.92 | 5.69 | 4.61 | 5.77 | 4.84
COc1ccc2c(c1OC)C(C1CCC1)N1CCc3cc4c(cc3C1=C2)OCO4 (stereo not shown) [AB36447] | 5.71 | 5.56 | 4.70 | < 4.52 | 5.67 | 5.15 | 5.69 | 5.69 | 5.30 | 5.57 | 5.70 | < 4.52 | 5.69 | 4.61
COc1ccc2c(c1OCCCBr)C(C1CCCC1)N1CCc3cc4c(cc3C1=C2)OCO4 (stereo not shown) [AB35430] | 5.81 | 5.88 | 4.92 | 4.79 | 6.02 | 5.20 | 6.07 | 6.07 | 5.50 | 5.88 | 5.70 | 4.63 | 5.59 | 4.77
COc1ccc2c(c1OCCCCl)C(C(Cl)(Cl)Cl)N1CCc3cc4c(cc3C1=C2)OCO4 (stereo not shown) [AB35441] | 5.91 | 5.63 | 4.91 | 4.78 | 6.01 | 5.53 | 6.00 | 6.00 | 5.49 | 5.81 | 5.50 | < 4.52 | 5.70 | 4.61
CCCOc1c(OC)ccc2c1C(C(Cl)(Cl)Cl)N1CCc3cc4c(cc3C1=C2)OCO4 (stereo not shown) [AB35506] | 5.67 | 5.78 | 4.85 | 4.99 | 5.81 | 5.60 | 6.08 | 6.08 | 5.58 | 5.90 | 5.44 | 4.70 | 5.41 | 4.59
C1=C2c3cc4c(cc3CCN2C(C2CCCC2)c2c1ccc1c2OCO1)OCO4 (stereo not shown) [AB36423] | 5.60 | 5.81 | 4.84 | 4.65 | 5.78 | 5.30 | 5.73 | 5.73 | 5.29 | 5.63 | 5.51 | < 4.52 | 5.53 | 4.79
COc1ccc2c(c1OCCCCl)CN1CCc3cc4c(cc3C1=C2)OCO4 [AB35543] | 5.81 | 5.77 | 4.99 | 5.01 | 6.06 | 5.51 | 6.26 | 6.26 | 5.57 | 5.97 | 5.81 | 4.80 | 5.63 | 4.87
